Data: patent US20240018146A1, “COMPOSITIONS AND METHODS OF USING THE SAME FOR TREATMENT OF NEURODEGENERATIVE AND MITOCHONDRIAL DISEASE” (MITOKININ, INC., priority 2020, published 2024)
pEC50: −log10 of the molar value. Like-named read-outs stand apart in the source and are kept apart here.

Experiments:
Format in all cases: cell-based
HeLa MKYP cells [1] = assay: Cell death measured by DAPI staining, with 1 μM FCCP/oligomycin or no toxin (no FO); details: for Max cell death at 25 μM compound, 1 uM FO (%) / Cell death at 25 μM (no FO) (%): 25 μM compound
How it was run: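 HeLa MKYP cells were treated with compounds alongside 1 μM FCCP/oligomycin or no toxin for 6 or 6.5 h. Cell death was scored by DAPI staining, with H2O2 treatment as the death control.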

HeLa MKYP cells [2] = assay: Human mitophagy assay (HeLa mKeima assay, FACS)
How it was run: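 HeLa cells carrying the pH-sensitive mtKeima tag incubated 16 h with compound at several concentrations, then 1 uM FCCP/oligomycin for 6 h. FACS detects mitochondria in lysosomes through the Keima emission shift, quantified as percentage of cells in mitophagy.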

[3] = Mitotoxicity / Mitotox safety margin (therapeutic window)
[4] = Homo sapiens, HeLa, read-out: Mitophagy induction EC50
[5] = read-out: Mitophagy induction EC50
[6] = Homo sapiens, HeLa, HeLa mKeima assay, read-out: Mitophagy EC50 (HeLa mKeima assay)

Structure (SMILES) | Highest safe dose (cytotoxicity; no FO; safe means DAPI+ <20%) (HeLa MKYP cells [1]) [µM] | Max % death with 1 μM FO (HeLa MKYP cells [1]) [%] | pEC50 (HeLa MKYP cells [2]; [4]) | Mito-Safety Index (highest safe dose/EC50) [3] | Highest safe dose (μM) (mitotox or cytotox) [3] [µM] | pEC50 (HeLa MKYP cells [2]; [5]) | Max cell death at 25 μM compound, 1 uM FO (%) (HeLa MKYP cells [1]) | Cell death at 25 μM (no FO) (%) (HeLa MKYP cells [1]) | pEC50 (HeLa MKYP cells [2]; [6]) | Mitotox safety margin (Therapeutic window) [3]
C[C@@H]1CN([C@H]2COc3ccccc3[C@@H]2Nc2ncnc3[nH]c(C(F)(F)F)cc23)C[C@H](C)O1 (single isomer, unassigned) [EP-0040749] | 25.0 | 34.3 | 6.82 | 48.24 | 7.1 |  |  |  |  | 
C[C@@H]1CN([C@H]2COc3ccccc3[C@@H]2Nc2ncnc3[nH]c(C4CC4)cc23)C[C@H](C)O1 (single isomer, unassigned) [EP-0040750] | 25.0 | 27.7 | 7.30 | 43.07 | 2.3 |  |  |  |  | 
C[C@@H]1CN([C@H]2COc3cc(F)ccc3[C@@H]2Nc2ncnc3[nH]c(C(F)(F)F)cc23)C[C@H](C)O1 (single isomer, unassigned) [EP-0040773] | 25.0 | 27.3 | 6.89 | 77.04 | 9.9 |  |  |  |  | 
C[C@@H]1CN([C@H]2COc3cc(F)ccc3[C@@H]2Nc2ncnc3[nH]c(C4CC4)cc23)C[C@H](C)O1 (single isomer, unassigned) [EP-0040842] | 25.0 | 22.5 | 7.70 | 82.00 | 2.0 |  |  |  |  | 
FC(F)(F)c1cc2c(N[C@@H]3c4ccccc4OC[C@@H]3C3CCCOC3)ncnc2[nH]1 (single isomer, unassigned) [EP-0041005] | 25.0 | 24.8 | 5.84 | 17.30 | 25.0 |  |  |  |  | 
COC[C@@H]1CCN([C@H]2COc3ccccc3[C@@H]2Nc2ncnc3[nH]c(C(F)(F)F)cc23)C1 (single isomer, unassigned) [EP-0041071] | 25.0 | 12.6 |  | 47.29 | 3.3 | 7.15 |  |  |  | 
COC[C@H]1CCN([C@H]2COc3ccccc3[C@@H]2Nc2ncnc3[nH]c(C(F)(F)F)cc23)C1 (single isomer, unassigned) [EP-0041175] | 25.0 | 8.8 |  | 30.68 | 4.5 | 6.82 |  |  |  | 
[2H]C([2H])([2H])OC1CN([C@H]2COc3ccccc3[C@@H]2Nc2ncnc3[nH]c(C(F)(F)F)cc23)C1 (single isomer, unassigned) [EP-0041326] | 25.0 | 7.5 |  | 56.49 | 19.8 | 6.46 |  |  |  | 
COC[C@@H]1CCN(C2COc3ccccc3C2Nc2ncnc3[nH]c(C4CC4)cc23)C1 (single isomer, unassigned) [EP-0041514] | 25.0 | 8.1 |  | 38.63 | 1.4 | 7.52 |  |  |  | 
FC(F)OC1CN([C@H]2COc3ccccc3[C@@H]2Nc2ncnc3[nH]c(C(F)(F)F)cc23)C1 (single isomer, unassigned) [EP-0041541] | 25.0 | 19.1 | 6.54 | 28.61 | 8.3 |  |  |  |  | 
c1ccc2c(c1)CC[C@H](N1C[C@H]3COC[C@H]3C1)[C@H]2Nc1ncnc2[nH]c(C3CC3)cc12 [EP-0039713] | 25.0 | 26.3 | 7.00 | 9.46 | 0.9 |  | 19.2 | 12.9 | 7.00 | + (+ = <10)
CN(c1ncnc2[nH]c(C(F)(F)F)cc12)C1c2ccccc2CCC1N1C[C@H]2COC[C@H]2C1 (stereo partly drawn) [EP-0039742] | 25.0 | 20.4 | 5.47 | 7.45 | 25.0 |  | 13.8 | 2.45 | 5.48 | 
CN(c1ncnc2[nH]c(C3CC3)cc12)C1c2ccccc2CCC1N1C[C@H]2COC[C@H]2C1 (stereo partly drawn) [EP-0039743] | 25.0 | 28.2 | 5.38 | 5.99 | 25.0 |  | 33.7 | 11.6 | 5.41 | 
c1ccc2c(c1)OC[C@H](N1CCOCC1)[C@H]2Nc1ncnc2[nH]c(C3CC3)cc12 [EP-0040080] | 25.0 | 13.9 | 6.32 | 51.66 | 25.0 |  | 16 | 4.73 | 6.23 | ++ (++ = 10 < x < 20)
N#Cc1ccc2c(c1)CC[C@H](N1C[C@H]3COC[C@H]3C1)[C@H]2Nc1ncnc2[nH]c(C(F)(F)F)cc12 [EP-0040120] | 8.3 | 93.5 | 5.64 |  | 8.3 |  |  |  |  | 
FC(F)(F)c1cc2c(N[C@H]3c4ccccc4OC[C@@H]3N3C[C@H]4COC[C@H]4C3)ncnc2[nH]1 [EP-0040138] | 25.0 | 9.4 | 6.11 | 32.50 | 25.0 |  |  |  |  | 
Fc1ccc2c(c1)CC[C@H](N1C[C@H]3COC[C@@H]3C1)[C@H]2Nc1ncnc2[nH]c(C3CC3)cc12 [EP-0040395] | 25.0 | 8.1 | 6.68 | 56.09 | 11.7 |  |  |  |  | 
FC(F)(F)c1cc2c(N[C@H]3c4ccccc4OC[C@@H]3C3CCOCC3)ncnc2[nH]1 [EP-0040583] | 25.0 | 17.8 | 6.62 | 104.01 | 25.0 |  |  |  |  | 
Fc1ccc2c(c1)CC[C@H](N1C[C@H]3COC[C@H]3C1)[C@H]2Nc1ncnc2[nH]c(C3CC3)cc12 [EP-0040601] | 25.0 | 45.3 | 6.72 | 55.12 | 10.3 |  |  |  |  | 
